We go through nine compounds from patent US6342508B1, “N-hydroxy-2-(Alkyl,Aryl or Heteroaryl sulfanyl, sulfinyl or sulfonyl) 3-substituted alkyl, aryl or heteroarylamides as matrix metalloproteinase inhibitors” (American Cyanamid Company, priority 1997, dated 2002).

What all share (format): biochemical
The target of assay [1] is T1, MMP 1 (Homo sapiens, UniProt P03956).
T1 construct: human recombinant fibroblast collagenase (truncated mw=18,828, WAR, Radnor)
T1 sequence (P03956 100-269 limits assumed): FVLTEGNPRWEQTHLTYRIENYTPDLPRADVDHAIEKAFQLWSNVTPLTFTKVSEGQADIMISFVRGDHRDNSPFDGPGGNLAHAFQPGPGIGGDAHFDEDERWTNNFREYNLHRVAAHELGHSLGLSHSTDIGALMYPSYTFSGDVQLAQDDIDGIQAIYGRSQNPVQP
Description: In Vitro Collagenase Assay (human recombinant fibroblast collagenase, fluorogenic peptide substrate). The note with it: for IC50: read-out: MMP 1 IC 50. As to the method: The assay is based on the cleavage of a peptide substrate ((Dnp-Pro-Cha-Gly-Cys(Me)-His-Ala-Lys(NMa)-NH2), Peptide International Inc.) by collagenase releasing the fluorescent NMa group which is quantitated on the fluorometer. Dnp quenches the NMa fluorescence in the intact substrate. […] Substrate is dissolved in methanol and stored frozen in 1 mM aliquots. […] For the assay, substrate is dissolved in HCBC buffer to a final concentration of 10 μM and collagenase to a final concentration of 5 nM. Compounds are dissolved in methanol, DMSO, or HCBC. The methanol and DMSO are diluted in HCBC to <1.0%. Compounds are added to the 96 well plate containing enzyme and the reaction is started by the addition of substrate.
The slope of the line is calculated and represents the reaction rate.
The mean (x±sem) of the control rate is calculated and compared for statistical significance (p<0.05) with drug-related rates using Dunnett's multiple comparison test.

The target of assay [2] is T2, MMP 9 (Homo sapiens, UniProt P14780).
T2 construct: from tissue; host or cells: human neutrophils
T2 sequence (P14780 94-707): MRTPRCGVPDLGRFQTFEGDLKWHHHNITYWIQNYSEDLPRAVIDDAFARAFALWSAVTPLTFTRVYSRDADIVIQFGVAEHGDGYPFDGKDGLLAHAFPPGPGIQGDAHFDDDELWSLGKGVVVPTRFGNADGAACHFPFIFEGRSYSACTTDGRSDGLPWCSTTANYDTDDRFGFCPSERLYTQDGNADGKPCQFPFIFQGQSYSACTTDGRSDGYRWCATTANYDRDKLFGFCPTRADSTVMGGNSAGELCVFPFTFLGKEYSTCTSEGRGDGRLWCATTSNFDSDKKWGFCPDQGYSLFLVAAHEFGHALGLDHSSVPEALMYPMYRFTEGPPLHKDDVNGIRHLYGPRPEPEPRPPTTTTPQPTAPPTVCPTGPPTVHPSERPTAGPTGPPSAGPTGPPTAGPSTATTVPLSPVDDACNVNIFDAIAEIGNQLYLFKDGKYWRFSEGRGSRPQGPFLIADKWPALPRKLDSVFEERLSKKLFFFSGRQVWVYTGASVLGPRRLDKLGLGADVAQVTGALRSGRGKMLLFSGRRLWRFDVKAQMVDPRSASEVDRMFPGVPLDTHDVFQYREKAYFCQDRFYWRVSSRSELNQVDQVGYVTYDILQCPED
In words: In Vitro Gelatinase Assay (human neutrophil gelatinase B, thiopeptide substrate/DTNB). The note with it: for IC50: read-out: MMP 9 IC 50. Here is the method: The assay is based on the cleavage of the thiopeptide substrate ((Ac-Pro-Leu-Gly(2 Mercapto-4 methyl-pentanoyl)-Leu-Gly-OEt), Bachem Bioscience) by the enzyme, gelatinase, releasing the substrate product which reacts colorimetrically with DTNB ((5,5′-dithio-bis(2-nitro-benzoic acid)). The enzyne activity is measured by the rate of the color increase. The thiopeptide substrate is made up fresh as a 20 mM stock in 100% DMSO and the DTNB is dissolved in 100% DMSO as a 100 mM stock and stored in dark at room temperature. Both the substrate and DTNB are diluted together to 1 mM with substrate buffer (50 mM HEPES pH 7.5, 5 mM CaCl2) before use.
The increase in OD405 is plotted and the slope of the line is calculated which represents the reaction rate.
The mean (x±sem) of the control rate is calculated and compared for statistical significance (p<0.05) with drug-treated rates using Dunnett's multiple comparison test.

For assay [3], the target named is MMP 13 (Homo sapiens, UniProt P45452). Description: MMP 13 inhibition (standard/manual test). The following applies: for IC50: read-out: MMP 13 IC 50.
The target of assay [4] is T3, TACE (Homo sapiens, UniProt P78536).
T3 construct: purchased Immunex
T3 sequence (P78536 215-824): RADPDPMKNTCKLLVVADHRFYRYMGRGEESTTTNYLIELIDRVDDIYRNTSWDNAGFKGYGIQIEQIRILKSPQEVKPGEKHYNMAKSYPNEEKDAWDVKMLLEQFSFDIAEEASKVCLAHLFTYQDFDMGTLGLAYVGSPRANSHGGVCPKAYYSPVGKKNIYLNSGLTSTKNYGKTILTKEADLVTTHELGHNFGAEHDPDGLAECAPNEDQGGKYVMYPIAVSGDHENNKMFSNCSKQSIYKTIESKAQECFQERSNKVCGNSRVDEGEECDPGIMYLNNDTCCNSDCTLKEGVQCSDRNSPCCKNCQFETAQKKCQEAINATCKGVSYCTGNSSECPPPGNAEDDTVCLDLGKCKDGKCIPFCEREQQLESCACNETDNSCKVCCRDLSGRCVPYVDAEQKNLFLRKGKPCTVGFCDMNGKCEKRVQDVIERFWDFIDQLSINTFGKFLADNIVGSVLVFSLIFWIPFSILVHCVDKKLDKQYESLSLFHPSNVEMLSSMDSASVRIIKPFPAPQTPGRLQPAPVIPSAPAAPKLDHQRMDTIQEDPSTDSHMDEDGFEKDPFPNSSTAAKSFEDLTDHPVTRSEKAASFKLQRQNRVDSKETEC
In words: Procedure for Measuring TACE Inhibition (fluorescent peptidyl substrate). The following applies: for IC50: read-out: TACE IC 50.

In the case of `COc1ccc(S(=O)(=O)C2(C(=O)NO)CCN(CC=C(C)C)CC2)cc1` [Example 89, 4-(4methoxy-benzene-sulfonyl)-1-(3-methyl-but-2-enyl)-piperdine-4-carboxylic acid hydroxamide], the values for the IC50 in assay [1], in assay [2] and in assay [3] were 1390 nM, 38.6 nM and 7 nM, respectively. For the same compound, the “TACE % inhibition at 1 micromolar” value in assay [4] was 49%.
For the compound `Cc1occc1S(=O)(=O)C(C)(Cc1ccc(OCCN2CCCCC2)cc1)C(=O)NO` (stereo not drawn) [Example 44, 2-Methyl-2-(2-methyl-furan-3-sulfonyl)3-[4-(2-piperidin-1-yl-ethoxy)phenyl]-propionic acid hydroxamide], the “MMP 1 % inhibition at 1 micromolar” value in assay [1] is 47.1%. Besides, the “MMP 9 % inhibition at 1 micromolar” value in assay [2] is listed as 36.9%. Besides, in assay [3], the “MMP 13 % inhibition at 1 micromolar” value is 39.5%. For the same compound, in assay [4], the “TACE % inhibition at 1 micromolar” value was found to be 14.9%.
The matching figures for `CCCCCCCCS(=O)(=O)C(Cc1ccc(OCCN2CCCCC2)cc1)C(=O)NO` (stereo not drawn) [Example 46, 2-(octane-1-sulfonyl)-3-[4-(2-piperidin-yl-ethoxy)-phenyl]propionic acid hydroxamide]: 78.9%, 79.12%, 84.7% and 1.4%.
Turning to `CCCCCCC(Sc1ccc(OC)cc1)C(=O)NO` (stereo not drawn) [Example 37, 2-(4-Methoxy-benzenesulfanyl)-octanoic acid hydroxyamide], in assay [1], the “MMP 1 % inhibition at 1 micromolar” value is 9%. In addition, in assay [2], the “MMP 9 % inhibition at 1 micromolar” value is recorded as 31.6%. The “MMP 13 % inhibition at 1 micromolar” value in assay [3] is on record as 14.3%. The IC50 in assay [4] was 87 nM.
In the case of `COc1ccc(S(=O)(=O)C(C)(CC=C(C)C)C(=O)NO)cc1` (stereo not drawn) [Example 13, 2-(4-Methoxy-benzenesulfonyl)-2-dimethyl-hex-4-enoic acid hydroxyamide], the IC50 was determined as 239 nM in assay [1], 11 nM in assay [2], 14 nM in assay [3] and 626 nM in assay [4].
On to “2-(4-Methoxy-benzenesulfonyl)-4methyl-2-pyridin-ylmethyl-pentanoic acid hydroxyamide [Example 66]”, for which the IC50 in assay [1] came to 1600 nM; in assay [2], 131 nM; in assay [3], 226 nM. In assay [4], the “TACE % inhibition at 1 micromolar” value turned out to be 42.33%.
Consider `CCN(CC)CCOc1cccc(CC(C)(C(=O)NO)S(=O)(=O)c2ccc(OC)cc2)c1` (stereo not drawn) [Example 29, N-Hydroxy-2-(4-methoxy-benzenesulfonyl)-2-methyl-3-[3-(2-N,N-diethylamino-ethoxy)-phenyl]-propionamide], for which the IC50 in assay [1] is 297 nM; in assay [2], 4.3 nM; in assay [3], 3.6 nM. The “TACE % inhibition at 1 micromolar” value in assay [4] turned out to be 41%.
Turning to `CCCCC[C@H](C(=O)NO)[S@+]([O-])c1ccc(OC)cc1` (relative stereo) [Example 81a, 2R*-(4-methoxyphenyl-S*-sulfinyl)-heptanoic acid hydroxyamide], the IC50 in assay [1] is 2040 nM; in assay [2], 231 nM; in assay [3] it was 43.9 nM; in assay [4], 27.1 nM.
Take `Cc1occc1S(=O)(=O)C(C)(Cc1ccccc1)C(=O)NO` (stereo not drawn) [Example 43, 2-Methyl-2-(2-methyl-furan-3-sulfonyl)-3-phenyl-propionic acid hydroxamide]: the “MMP 1 % inhibition at 1 micromolar” value in assay [1] worked out at 66.1%. In addition, in assay [2], the “MMP 9 % inhibition at 1 micromolar” value was found to be 34.7%. The “MMP 13 % inhibition at 1 micromolar” value in assay [3] stood at 55.5%. The “TACE % inhibition at 1 micromolar” value in assay [4] amounted to 46.6%.
